In assay [1] the test system is AT8 (phospho-Tau S202/T205). As to the kind of experiment: Immunofluorescence staining of brain tissue (AT8) for tau hyperphosphorylation. Format: in vivo, mouse. Conditions: GV2002 2 mg/kg subcutaneous, 3 times/week, 21 weeks. As for the experimental part:
(§1) In vivo experiments were performed on the 4R tauopathy mouse groups shown in FIG. 4 according to the schedule shown in FIG. 5 and the outline in Table 3 below.
The brains of a 4R tauopathy mouse model administered GV2002 for 5 months, from 7.5 to 12.5 months of age, were removed and analyzed using immunofluorescence staining.
For brain tissue sampling, the 4R tauopathy mouse models were anesthetized, and saline was perfused intracardially, after which the blood was removed using a perfusion pump device. Then, the brains were removed and weighed. The brains to be used for tissue staining experiments were fixed in a 4% PFA solution for 24 hours. The fixed brain tissue was immersed in a 20% sucrose solution for 24 hours and then in a 30% sucrose solution for 48 hours for dehydration. The dehydrated brain tissue was removed, excess moisture was eliminated, and the brain tissue and a cryoembedding agent (OCT compound) were placed together in a mold to protect the tissue, after which the brain tissue was rapidly frozen using dry ice. The frozen brain tissue mold was stored in a -80 °C freezer. Afterwards, the brain tissue was sectioned into 30-µm-thick sections using a cryostat and stored in a 0.05% sodium azide solution.
For immunofluorescence staining of brain tissue, 30-µm-thick frozen brain sections were selected according to brain region, washed three times with PBS for 10 minutes each, fixed in 3.7% formaldehyde for 5 minutes, and washed three times with PBS for 10 minutes each. The brain tissue samples were permeabilized in 0.3% PBS-T solution, and then blocked in 5% BSA solution in PBS for 1 hour. The brain tissues were incubated overnight in 3% BSA and 0.1% Tween-20 solution in PBS containing AT8 (phospho-Tau S202/T205) antibody diluted at a ratio of 1:200, which targets tau hyperphosphorylation. The brain tissues were washed three times with PBS for 10 minutes each. The brain tissues were then incubated for 1 hour at room temperature in 3% BSA and 0.1% Tween-20 solution in PBS containing secondary antibody diluted 1:500. The brain tissues were immersed in PBS solution and washed once for 10 minutes. […] The brain tissues were immersed in PBS solution and washed three times for 10 minutes each, and fluorescence imaging was performed using a slide scanner.
To obtain fluorescence images of the stained brain tissue, brain tissue slides were scanned using a Zeiss Axio Scan (Zeiss, Oberkochen, Germany). AT8 fluorescence levels in each brain tissue region obtained through fluorescence imaging, i.e., the somatosensory cortex, hippocampus (CA1), motor cortex, and substantia nigra, were calculated using ImageJ software (NIH). The calculated values were analyzed using one-way ANOVA with Dunnett's multiple comparisons test.

In assay [2] the test system is total tau (Tau5) and phosphorylated tau (pS199, pS396). As to the kind of experiment: Brain lysate analysis by tau immunoblot (soluble and insoluble fractions). Format: in vivo, mouse. Conditions: GV2002 2 mg/kg subcutaneous, 3 times/week, 21 weeks. As to the method:
as §1
Brain lysates from a 4R tauopathy mouse model administered GV2002 for five months, from 7.5 to 12.5 months of age, were obtained. Soluble and insoluble fraction samples were subjected to immunoblotting using antibodies against total tau (Tau5) and phosphorylated tau (pS199, pS396), and the levels of total and phosphorylated tau were quantitatively analyzed.
Mouse models were anesthetized, saline was intracardially perfused, and blood was removed using a perfusion pump device. The brain was then removed and weighed. 1 mL of RIPA buffer (containing protease and phosphatase inhibitor cocktails) was added to the extracted brain and homogenized.
The homogenized brain lysates were transferred to EP tubes and incubated on an orbital shaker at 4°C for 2 hours. After centrifugation at 13,000 rpm for 20 minutes at 4°C, the supernatant (soluble fraction) was collected in a new EP tube and stored at -80°C.
To prepare samples for immunoblotting, the concentrations of the fractionated samples were quantified using the Bradford protein quantification assay. RIPA buffer and 4X SDS Laemmli sample buffer (containing 2.5% β-mercaptoethanol for reducing conditions) were added to each sample to adjust the final protein concentration to 2 mg/mL. The samples were then boiled at 97°C for 5 minutes.
Meanwhile, to obtain the insoluble fraction, the remaining pellet after supernatant removal was resuspended in RIPA buffer containing 1 M sucrose (1 mL) and DNase I (1 mg/mL). […]
20 µg of each brain lysate sample of soluble and insoluble fractions were loaded onto a 10% SDS-PAGE gel (SDS-PAGE running buffer: 1X Tris/Glycine/SDS buffer in 3' D.W.), and electrophoresis was performed at 80 V for 30 minutes followed by 90 V for 1 hour. […] Protein bands of the membrane were detected using ChemiDoc with ECL solution, which is HRP substrate, and band intensities were quantified using ImageJ software (NIH).

Setting [3] is: soluble fraction of brain lysate.

This is an account of results in patent publication EP4729530A1, “NOVEL PEPTIDE AND USE THEREOF” (Gemvax & Kael Co., Ltd., priority 2023, dated 2024).

In the case of Ac-EARPALLTSRLRFIPK-NH2 [GV2002], the “AT8 fluorescence intensity, reduction compared to the vehicle-administered group” value in assay [1] (hippocampus region) amounted to 62%; in assay [1] (motor cortex region), 65%; in assay [1] (somatosensory cortex region), 57%; in assay [1] (substantia nigra region), 69%. In assay [2] (insoluble fraction of brain lysate, total tau (Tau5)), the “level of insoluble tau, reduced to (compared to the vehicle-administered group)” value is 57%. Moreover, in assay [2] (setting [3]), the “phosphorylated tau pS199, reduced to (compared to the vehicle-administered group)” value was 66%. The “phosphorylated tau pS396, reduced to (compared to the vehicle-administered group)” value in assay [2] (setting [3]) is 56%.
